# Laboratory results from patent publication US12084430B2, “Tricyclic urea compounds as JAK2 V617F inhibitors” (Incyte Corporation, priority 2022, dated 2024).
# Legend:
# [1] = In vitro intrinsic clearance; format: in vitro ADME; settings: human liver microsomes, 1 μM
# Procedure: Example G. In Vitro Intrinsic Clearance Protocol
# For in vitro metabolic stability experiments, test compounds were incubated with human liver microsomes at 37° C. The incubation mixture contained test compounds (1 μM), NADPH (2 mM), and human liver microsomes (0.5 mg protein/mL) in 100 mM phosphate buffer (pH 7.4). The mixture was pre-incubated for 2 min at 37° C. before the addition of NADPH. Reactions were commenced upon the addition of NADPH and quenched with ice-cold methanol at 0, 10, 20, and 30 min. Terminated incubation mixtures were analyzed using LC-MS/MS system. The analytical system consisted of a Shimadzu LC-30AD binary pump system and SIL-30AC autosampler (Shimadzu Scientific Instruments, Columbia, MD) coupled with a Sciex Triple Quad 6500+ mass spectrometer from Applied Biosystems (Foster City, CA). […] Mobile phase A consisted of 0.1% formic acid in water, and mobile phase B consisted of 0.1% formic acid in acetonitrile. The total LC-MS/MS runtime was 2.75 minutes with a flow rate of 0.75 mL/min. Peak area integrations and peak area ratio calculations were performed using Analyst software (version 1.6.3) from Applied Biosystems.
# The in vitro intrinsic clearance, CLint, in vitro, was calculated from the t1/2 of test compound disappearance as CLint, in vitro=(0.693/t1/2)×(1/Cprotein), where Cprotein is the protein concentration during the incubation, and t1/2 was determined by the slope (k) of the log-linear regression analysis of the concentration versus time profiles; thus, t1/2=ln 2/k. The CLint, in vitro values were scaled to the in vivo values for human by using physiologically based scaling factors, hepatic microsomal protein concentrations (45 mg protein/g liver), and liver weights (21 g/kg body weight). The equation CLint=CLint, in vitro×(mg protein/g liver weight)×(g liver weight/kg body weight) was used. The in vivo hepatic clearance (CLH) was then calculated by using CLint and hepatic blood flow, Q (20 mL·min^−1·kg^−1 in humans) in the well-stirred liver model disregarding all binding from CLH=(Q×CLint)/(Q+CLint). The hepatic extraction ratio was calculated as CLH divided by Q.
# KIT [2] = assay: KIT enzymatic assay; format: biochemical
# Procedure: (§1) Example D. KIT Enzymatic Assay
# (§2) The kinase assays were carried out at room temperature in assay buffer (HEPES 50 mM, pH 7.0, NaN3 0.02%, BSA 0.01%, Orthovanadate 0.1 mM, DTT 1 mM, MgCl2 10 mM) in a final volume of 10 μL. Testing compounds were prepared by serial dilution in DMSO and transferred to the plate wells by ECHO liquid handler (Labcyte) with 0.5% DMSO in the final assay. […]. Reactions were initiated by the addition of 5 μL ATP in assay buffer. The final 10 μL kinase reaction consists of 0.12 nM KIT, 1 mM ATP, 500 nM TK Substrate-biotin and SEB reagent 62.5 nM in assay buffer. […] The plates were then sealed and centrifuged at 1800 rpm for 2 minutes. After 60 minutes incubation at room temperature, the product activity was determined by measuring the fluorescence at 620 nm and 665 nm on Pherastar microplate reader (BMG Labtech). A ratio is calculated (665/620 nm) for each well. Wells with DMSO only were served as the positive controls and wells containing no ATP were used as negative controls. IC50 determination was performed by fitting the curve of percent control activity versus the log of the compound concentration using the GraphPad Prism 7.0 software.
# KIT [3] = biological target: KIT (Homo sapiens, UniProt P10721); assay: KIT enzymatic assay; format: biochemical; settings: 1 mM ATP
# Procedure: as §1, §2
# TRKA [4] = assay: TRKA enzymatic assay; format: biochemical
# Procedure: (§3) Example I. TRKA Enzymatic Assay
# (§4) The kinase assays were carried out at 24° C. temperature in assay buffer (HEPES 50 mM, pH 7.0, NaN3 0.02%, BSA 0.01%, Orthovanadate 0.1 mM, DTT 1 mM, MgCl2 10 mM) in a final volume of 10 μL. Testing compounds were prepared by serial dilution in DMSO and transferred to the plate wells by ECHO liquid handler (Labcyte) with 0.5% DMSO in the final assay. […]. Reactions were initiated by the addition of 5 μL ATP in assay buffer. The final 10 μL kinase reaction consists of 0.58 nM TRKA, 1 mM ATP, 500 nM TK Substrate-biotin and SEB reagent 62.5 nM in assay buffer. […] After 60 minutes incubation at room temperature, the product activity was determined by measuring the fluorescence at 620 nm and 665 nm on Pherastar microplate reader (BMG Labtech). A ratio is calculated (665/620 nm) for each well. Wells with DMSO only were served as the positive controls and wells containing no ATP were used as negative controls. IC50 determination was performed by fitting the curve of percent control activity versus the log of the compound concentration using the Gene data.
# TRKA [5] = biological target: TRKA (Homo sapiens, UniProt P04629); assay: TRKA enzymatic assay; format: biochemical; settings: 1 mM ATP
# Procedure: as §3, §4
# FLT3 = FLT3 enzymatic assay; format: biochemical
# Procedure: Example C. FLT3 Enzymatic Assay
# as §2, with “0.011” for “0.12”, “FLT3,” for “KIT,”
# Sequence of KIT (Homo sapiens, UniProt P10721) (P10721 26-976, species assumed): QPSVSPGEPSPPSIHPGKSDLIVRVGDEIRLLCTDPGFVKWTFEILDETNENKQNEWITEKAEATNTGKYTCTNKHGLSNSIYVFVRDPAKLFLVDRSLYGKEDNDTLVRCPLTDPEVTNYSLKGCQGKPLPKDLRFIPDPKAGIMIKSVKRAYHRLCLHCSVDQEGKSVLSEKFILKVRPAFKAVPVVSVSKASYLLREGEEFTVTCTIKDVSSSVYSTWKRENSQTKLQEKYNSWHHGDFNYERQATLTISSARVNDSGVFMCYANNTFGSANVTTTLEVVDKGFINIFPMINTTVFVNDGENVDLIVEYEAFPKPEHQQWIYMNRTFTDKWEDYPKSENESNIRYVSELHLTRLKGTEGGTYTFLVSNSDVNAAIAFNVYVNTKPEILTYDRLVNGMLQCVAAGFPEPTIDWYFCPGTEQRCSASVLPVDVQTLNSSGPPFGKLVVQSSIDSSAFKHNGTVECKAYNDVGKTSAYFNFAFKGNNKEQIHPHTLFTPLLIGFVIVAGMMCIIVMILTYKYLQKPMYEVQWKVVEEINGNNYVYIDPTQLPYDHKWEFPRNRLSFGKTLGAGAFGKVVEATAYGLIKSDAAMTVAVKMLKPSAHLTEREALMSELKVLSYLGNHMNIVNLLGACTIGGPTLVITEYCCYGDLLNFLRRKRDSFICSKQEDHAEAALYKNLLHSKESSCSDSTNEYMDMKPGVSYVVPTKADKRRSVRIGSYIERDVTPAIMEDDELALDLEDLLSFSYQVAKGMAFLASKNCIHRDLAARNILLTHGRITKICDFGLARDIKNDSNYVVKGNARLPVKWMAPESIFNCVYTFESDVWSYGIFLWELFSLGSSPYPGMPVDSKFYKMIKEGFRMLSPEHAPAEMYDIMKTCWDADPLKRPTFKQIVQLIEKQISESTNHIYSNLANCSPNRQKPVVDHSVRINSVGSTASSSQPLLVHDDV
# Sequence of TRKA (Homo sapiens, UniProt P04629) (P04629 33-796, species assumed): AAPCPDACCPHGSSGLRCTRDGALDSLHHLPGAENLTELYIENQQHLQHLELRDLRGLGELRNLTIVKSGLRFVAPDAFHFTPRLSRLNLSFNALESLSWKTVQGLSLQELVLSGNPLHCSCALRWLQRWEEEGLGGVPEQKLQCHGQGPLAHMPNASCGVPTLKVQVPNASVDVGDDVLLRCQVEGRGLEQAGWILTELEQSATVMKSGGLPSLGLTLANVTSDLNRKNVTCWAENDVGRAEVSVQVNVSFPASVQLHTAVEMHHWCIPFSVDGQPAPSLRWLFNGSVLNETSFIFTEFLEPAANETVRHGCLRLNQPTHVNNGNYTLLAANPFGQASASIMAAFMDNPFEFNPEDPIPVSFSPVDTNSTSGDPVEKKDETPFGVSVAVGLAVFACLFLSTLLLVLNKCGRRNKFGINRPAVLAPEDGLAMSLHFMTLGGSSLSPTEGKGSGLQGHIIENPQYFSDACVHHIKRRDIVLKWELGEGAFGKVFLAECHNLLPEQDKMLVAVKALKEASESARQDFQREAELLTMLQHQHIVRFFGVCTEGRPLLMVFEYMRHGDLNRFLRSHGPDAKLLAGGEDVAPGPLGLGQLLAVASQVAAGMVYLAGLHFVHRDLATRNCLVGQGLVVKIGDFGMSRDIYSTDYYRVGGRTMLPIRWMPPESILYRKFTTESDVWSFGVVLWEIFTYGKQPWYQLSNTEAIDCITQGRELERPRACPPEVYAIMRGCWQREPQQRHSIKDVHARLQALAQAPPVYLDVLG
SMILES,h-IntCL [1],Selectivity KIT/JH2 V617F (KIT [2]),IC50 (KIT [3]) [µM],Selectivity TRKA/JH2 V617F (TRKA [4]),IC50 (TRKA [5]) [µM],Selectivity FLT3/JH2 V617F (FLT3)
"[2H]C([2H])([2H])n1cc(-c2[nH]c3ncc4c(c3c2-c2ccc(F)cc2)n([C@@H]2CC[C@@H](NC(=O)OC)C2)c(=O)n4C([2H])([2H])[2H])c(F)n1 [Example 7, Methyl ((1R,3R)-3-(7-(3-fluoro-1-(methyl-d3)-1H-pyrazol-4-yl)-8-(4-fluorophenyl)-3-(methyl-d3)-2-oxo-3,6-dihydroimidazo[4,5-d]pyrrolo[2,3-b]pyridin-1(2H)-yl)cyclopentyl)carbamate]",‡ (h-IntCL of <0.7 L/h/kg),** (selectivity of >500-fold to ≤1500-fold),0.25 to 1.25,***** (selectivity of >5000-fold to ≤12500-fold),> 2.5,**** (selectivity of >1750-fold to ≤5000-fold)
"[2H]C([2H])([2H])n1cc(-c2[nH]c3ncc4c(c3c2-c2ccc3c(c2)COC3(C)C)n([C@@H]2CC[C@@H](NC(=O)OC)C2)c(=O)n4C([2H])([2H])[2H])c(F)n1 [Example 8, Methyl ((1R,3R)-3-(8-(1,1-dimethyl-1,3-dihydroisobenzofuran-5-yl)-7-(3-fluoro-1-(methyl-d3)-1H-pyrazol-4-yl)-3-(methyl-d3)-2-oxo-3,6-dihydroimidazo[4,5-d]pyrrolo[2,3-b]pyridin-1(2H)-yl)cyclopentyl)carbamate]",‡ (h-IntCL of <0.7 L/h/kg),****** (selectivity of >12500-fold),1.25 to 2.5,****** (selectivity of >12500-fold),> 2.5,****** (selectivity of >12500-fold)
"[2H]C([2H])([2H])Oc1ccc(-c2c(-c3cn(C([2H])([2H])[2H])nc3F)[nH]c3ncc4c(c23)n([C@@H]2CC[C@@H](NC(=O)OC)C2)c(=O)n4C([2H])([2H])[2H])cc1 [Example 9, Methyl ((1R,3R)-3-(7-(3-fluoro-1-(methyl-d3)-1H-pyrazol-4-yl)-8-(4-(methoxy-d3)phenyl)-3-(methyl-d3)-2-oxo-3,6-dihydroimidazo[4,5-d]pyrrolo[2,3-b]pyridin-1(2H)-yl)cyclopentyl)carbamate]",‡ ‡ (h-IntCL of ≥0.7 L/h/kg to ≤1 L/h/kg),*** (selectivity of >1500-fold to ≤1750-fold),0.25 to 1.25,***** (selectivity of >5000-fold to ≤12500-fold),1.25 to 2.5,***** (selectivity of >5000-fold to ≤12500-fold)
"[2H]C([2H])([2H])n1cc(-c2[nH]c3ncc4c(c3c2-c2ccc(C(C)(C)O)cc2)n([C@@H]2CC[C@@H](NC(=O)OC)C2)c(=O)n4C([2H])([2H])[2H])c(F)n1 [Example 10, Methyl ((1R,3R)-3-(7-(3-fluoro-1-(methyl-d3)-1H-pyrazol-4-yl)-8-(4-(2-hydroxypropan-2-yl)phenyl)-3-(methyl-d3)-2-oxo-3,6-dihydroimidazo[4,5-d]pyrrolo[2,3-b]pyridin-1(2H)-yl)cyclopentyl)carbamate]",‡ ‡ (h-IntCL of ≥0.7 L/h/kg to ≤1 L/h/kg),*** (selectivity of >1500-fold to ≤1750-fold),0.25 to 1.25,****** (selectivity of >12500-fold),> 2.5,**** (selectivity of >1750-fold to ≤5000-fold)
"[2H]C([2H])([2H])n1cc(-c2[nH]c3ncc4c(c3c2-c2ccc3c(c2)COC3(C)C)n([C@@H]2CC[C@@H](NC(=O)OC)C2)c(=O)n4C)c(F)n1 [Example 11, Methyl ((1R,3R)-3-(8-(1,1-dimethyl-1,3-dihydroisobenzofuran-5-yl)-7-(3-fluoro-1-(methyl-d3)-1H-pyrazol-4-yl)-3-methyl-2-oxo-3,6-dihydroimidazo[4,5-d]pyrrolo[2,3-b]pyridin-1(2H)-yl)cyclopentyl)carbamate]",‡ ‡ (h-IntCL of ≥0.7 L/h/kg to ≤1 L/h/kg),****** (selectivity of >12500-fold),> 2.5,****** (selectivity of >12500-fold),> 2.5,****** (selectivity of >12500-fold)
"[2H]C([2H])([2H])n1c(=O)n([C@@H]2CC[C@@H](NC(=O)OC)C2)c2c3c(-c4ccc5c(c4)COC5(C)C)c(-c4cn(CC(F)F)nc4F)[nH]c3ncc21 [Example 12, Methyl ((1R,3R)-3-(7-(1-(2,2-difluoroethyl)-3-fluoro-1H-pyrazol-4-yl)-8-(1,1-dimethyl-1,3-dihydroisobenzofuran-5-yl)-3-(methyl-d3)-2-oxo-3,6-dihydroimidazo[4,5-d]pyrrolo[2,3-b]pyridin-1(2H)-yl)cyclopentyl)carbamate]",‡ ‡ (h-IntCL of ≥0.7 L/h/kg to ≤1 L/h/kg),****** (selectivity of >12500-fold),> 2.5,****** (selectivity of >12500-fold),> 2.5,****** (selectivity of >12500-fold)
"[2H]C([2H])([2H])n1cc(-c2[nH]c3ncc4c(c3c2-c2ccc3c(cnn3C(C)C)c2)n([C@@H]2CC[C@@H](NC(=O)OC)C2)c(=O)n4C([2H])([2H])[2H])c(F)n1 [Example 13, Methyl ((1R,3R)-3-(7-(3-fluoro-1-(methyl-d3)-1H-pyrazol-4-yl)-8-(1-isopropyl-1H-indazol-5-yl)-3-(methyl-d3)-2-oxo-3,6-dihydroimidazo[4,5-d]pyrrolo[2,3-b]pyridin-1(2H)-yl)cyclopentyl)carbamate]",‡ ‡ (h-IntCL of ≥0.7 L/h/kg to ≤1 L/h/kg),**** (selectivity of >1750-fold to ≤5000-fold),0.25 to 1.25,****** (selectivity of >12500-fold),> 2.5,****** (selectivity of >12500-fold)
